Test results: US20030229053A1, “Compounds and methods for the treatment or prevention of flavivirus infections” (Shire BioChem Inc., priority 2001, published 2003)

biological target: recombinant HCV NS5B (Hepatitis C virus genotype 1b, UniProt P26663); assay: biochemical; settings: flashplate, polyrA/biotinylated-oligo dT, 100 nM NS5B, 2 hrs at room temperature; read-out: RNA pol Assay 2 IC50 (μm)
Procedure: In vitro HCV RdRp Flashplate Scintillation Proximity Assay (Strep-Flash Assay) Used to Evaluate Analogues:
In brief, a 400 ng/μl polyrA solution (Amersham Pharmacia Biotech) was mixed volume-to-volume with 5′ biotin-oligo dT12 at 20 pmol/μl. The template and primers were denatured at 95 C for 5 minutes then incubated at 37 C for 10 minutes. Annealed template-primers were subsequently diluted in a Tris-HCl containing buffer and allowed to bind to streptavidin-coated flashplates overnight.

recombinant HCV NS5B, sequence (P26663 2420-3010 limits assumed): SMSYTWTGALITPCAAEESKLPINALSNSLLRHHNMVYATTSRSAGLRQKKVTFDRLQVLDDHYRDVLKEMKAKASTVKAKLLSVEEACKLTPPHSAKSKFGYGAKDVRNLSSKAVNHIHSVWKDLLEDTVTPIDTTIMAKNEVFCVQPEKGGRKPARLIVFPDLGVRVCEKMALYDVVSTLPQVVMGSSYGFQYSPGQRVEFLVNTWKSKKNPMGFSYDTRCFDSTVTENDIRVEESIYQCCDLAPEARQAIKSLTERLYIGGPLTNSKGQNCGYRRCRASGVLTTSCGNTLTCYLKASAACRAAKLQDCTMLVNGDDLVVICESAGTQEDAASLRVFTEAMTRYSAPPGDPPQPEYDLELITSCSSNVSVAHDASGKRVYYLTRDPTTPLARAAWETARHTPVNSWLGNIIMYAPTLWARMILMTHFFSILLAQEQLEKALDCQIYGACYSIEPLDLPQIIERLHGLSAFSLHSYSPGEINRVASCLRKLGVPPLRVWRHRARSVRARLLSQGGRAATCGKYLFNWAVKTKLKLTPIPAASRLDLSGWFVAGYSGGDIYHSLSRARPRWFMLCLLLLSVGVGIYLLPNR

Row | SMILES | IC50 [µM]
1 | O=C(O)[C@H](Cc1ccccc1)N(Cc1ccc[n+]([O-])c1)C(=O)c1ccc(Cl)cc1Cl [Compound #210, 2-[(2,4-DICHLORO-BENZOYL)-(1-OXY-PYRIDIN-3-YLMETHYL)-AMINO]-3-PHENYL-PROPIONIC ACID] | < 5
2 | O=C(O)[C@H](Cc1ccccc1)N(Cc1ccc(-c2cccc(C(F)(F)F)c2)s1)C(=O)c1ccc(Cl)cc1Cl [Compound #211, 2-{(2,4-Dichloro-benzoyl)-[5-(3-trifluoromethyl-phenyl)-thiophen-2-ylmethyl]-amino}-3-phenyl-propionic acid] | 5 to 20
3 | N#Cc1cccc(CN(C(=O)c2ccc(Cl)cc2Cl)[C@@H](Cc2ccccc2)C(=O)O)c1 [compound #54, (2S)-2-[(3-Cyano-benzyl)-(2,4-dichloro-benzoyl)-amino]-3-phenyl-propionic acid] | < 5
4 | O=C(O)[C@H](Cc1ccccc1)N(Cc1cnc(-c2cccc([N+](=O)[O-])c2)s1)C(=O)c1ccc(Cl)cc1Cl [compound #64, 2-{(2,4-Dichloro-benzoyl)-[2-(3-nitro-phenyl)-thiazol-5-ylmethyl]-amino}-3-phenyl-propionic acid] | < 5
5 | O=C(O)[C@H](Cc1ccccc1)N(Cc1cnc(-c2cc3ccccc3o2)s1)C(=O)c1ccc(Cl)cc1Cl [compound #86, 2-[(2-Benzofuran-2-yl-thiazol-5-ylmethyl)-(2,4-dichloro-benzoyl)-amino]-3-phenyl-propionic acid] | < 5
6 | O=C(O)[C@H](Cc1ccccc1)N(Cc1cnc(Cl)s1)C(=O)c1ccc(Cl)cc1Cl [compound #140, (2s)-2-[(2-Chloro-thiazol-5-ylmethyl)-(2,4-dichloro-benzoyl)-amino]-3-phenyl-propionic acid] | < 5
7 | O=C(O)[C@H](Cc1ccccc1)N(Cc1ccc(-c2ccc(F)cc2)s1)C(=O)c1ccc(Cl)cc1Cl [compound #141, (2s)-2-{(2,4-Dichloro-benzoyl)-[5-(4-fluoro-phenyl)-thiophen-2-ylmethyl]-amino}-3-phenyl-propionic acid] | < 5
8 | O=C(O)[C@H](Cc1ccccc1)N(Cc1sccc1-c1ccc(F)c(Cl)c1)C(=O)c1ccc(Cl)cc1Cl [compound #145, (2s)-2-[[3-(3-Chloro-4-fluoro-phenyl)-thiophen-2-ylmethyl]-(2,4-dichloro-benzoyl)-amino]-3-phenyl-propionic acid] | 5 to 20
9 | O=C(O)[C@H](Cc1ccccc1)N(Cc1sccc1Br)C(=O)c1ccc(Cl)cc1Cl [compound #146, (2s)-2-[(3-Bromo-thiophen-2-ylmethyl)-(2,4-dichloro-benzoyl)-amino]-3-phenyl-propionic acid] | < 5
10 | CC(C)(C(=O)O)N(Cc1ccc(-c2cccc(C(F)(F)F)c2)o1)C(=O)c1ccc(Cl)cc1Cl [compound #147, (2s)-2-{(2,4-Dichloro-benzoyl)-[5-(3-trifluoromethyl-phenyl)-furan-2-ylmethyl]-amino}-2-methyl-propionic acid] | 5 to 20
11 | O=C(O)[C@H](Cc1ccccc1)N(Cc1cnc(-c2cccc(C(F)(F)F)c2)s1)C(=O)c1ccc(Cl)cc1Cl [compound #148, (2s)-2-{(2,4-Dichloro-benzoyl)-[2-(3-trifluoromethyl-phenyl)-thiazol-5-ylmethyl]-amino}-3-phenyl-propionic acid] | < 5
12 | O=C(O)[C@H](Cc1ccccc1)N(Cc1csc([N+](=O)[O-])c1)C(=O)c1ccc(Cl)cc1Cl [compound #149, (2s)-2-[(2,4-Dichloro-benzoyl)-(5-nitro-thiophen-3-ylmethyl)-amino]-3-phenyl-propionic acid] | < 5
13 | CS(=O)(=O)c1ccc(CN(C(=O)c2ccc(Cl)cc2Cl)[C@@H](Cc2ccccc2)C(=O)O)cc1 [compound #150, (2s)-2-[(2,4-Dichloro-benzoyl)-(4-methanesulfonyl-benzyl)-amino]-3-phenyl-propionic acid] | < 5
14 | COc1cccc(CN(C(=O)c2ccc(Cl)cc2Cl)[C@@H](Cc2ccccc2)C(=O)O)c1 [compound #151, (2s)-2-[(2,4-Dichloro-benzoyl)-(3-methoxy-benzyl)-amino]-3-phenyl-propionic acid] | < 5
15 | Cc1cccc(CN(C(=O)c2ccc(Cl)cc2Cl)[C@@H](Cc2ccccc2)C(=O)O)c1 [compound #152, (2s)-2-[(2,4-Dichloro-benzoyl)-(3-methyl-benzyl)-amino]-3-phenyl-propionic acid] | < 5
16 | Cn1nc(C(F)(F)F)c(CN(C(=O)c2ccc(Cl)cc2Cl)[C@@H](Cc2ccccc2)C(=O)O)c1Oc1cccc(Cl)c1 [compound #153, (2s)-2-[[5-(3-Chloro-phenoxy)-1-methyl-3-trifluoromethyl-1h-pyrazol-4-ylmethyl]-(2,4-dichloro-benzoyl)-amino]-3-phenyl-propionic acid] | 5 to 20

Row | SMILES | IC50 [µM]
17 | O=C(O)[C@H](Cc1ccccc1)N(Cc1sccc1-c1cc(F)cc(F)c1)C(=O)c1ccc(Cl)cc1Cl [compound #154, (2s)-2-{(2,4-Dichloro-benzoyl)-[3-(3,5-difluoro-phenyl)-thiophen-2-ylmethyl]-amino}-3-phenyl-propionic acid] | < 5
18 | O=C(O)[C@H](Cc1ccccc1)N(Cc1sccc1-c1ccc(Cl)c(Cl)c1)C(=O)c1ccc(Cl)cc1Cl [compound #155, (2s)-2-{(2,4-Dichloro-benzoyl)-[3-(3,4-dichloro-phenyl)-thiophen-2-ylmethyl]-amino}-3-phenyl-propionic acid] | < 5
19 | O=C(O)[C@H](Cc1ccccc1)N(Cc1sccc1-c1ccc(Cl)c(F)c1)C(=O)c1ccc(Cl)cc1Cl [compound #156, (2s)-2-[[3-(4-Chloro-3-fluoro-phenyl)-thiophen-2-ylmethyl]-(2,4-dichloro-benzoyl)-amino]-3-phenyl-propionic acid] | 5 to 20
20 | O=C(O)[C@H](Cc1ccccc1)N(Cc1sccc1-c1ccc(Cl)cc1Cl)C(=O)c1ccc(Cl)cc1Cl [compound #157, (2s)-2-{(2,4-Dichloro-benzoyl)-[3-(2,4-dichloro-phenyl)-thiophen-2-ylmethyl]-amino}-3-phenyl-propionic acid] | 5 to 20
21 | Cc1cccc(-c2ccsc2CN(C(=O)c2ccc(Cl)cc2Cl)[C@@H](Cc2ccccc2)C(=O)O)c1 [compound #158, (2s)-2-[(2,4-Dichloro-benzoyl)-(3-m-tolyl-thiophen-2-ylmethyl)-amino]-3-phenyl-propionic acid] | < 5
22 | CCOC(=O)c1ccccc1-c1ccsc1CN(C(=O)c1ccc(Cl)cc1Cl)[C@@H](Cc1ccccc1)C(=O)O [compound #159, (2s)-2-(2-{[(1s-1-Carboxy-2-phenyl-ethyl)-(2,4-dichloro-benzoyl)-amino]-methyl}-thiophen-3-yl)-benzoic acid ethyl ester] | 5 to 20
23 | CCOC(=O)c1ccc(-c2ccsc2CN(C(=O)c2ccc(Cl)cc2Cl)[C@@H](Cc2ccccc2)C(=O)O)cc1 [compound #160, (2s)-4-(2-{[(1s-1-Carboxy-2-phenyl-ethyl)-(2,4-dichloro-benzoyl)-amino]-methyl}-thiophen-3-yl)-benzoic acid ethyl ester] | < 5
24 | O=C(O)[C@H](Cc1ccccc1)N(Cc1sccc1-c1cccc(F)c1)C(=O)c1ccc(Cl)cc1Cl [compound #161, (2s)-2-{(2,4-Dichloro-benzoyl)-[3-(3-fluoro-phenyl)-thiophen-2-ylmethyl]-amino}-3-phenyl-propionic acid] | 5 to 20
25 | N#Cc1cccc(-c2ccsc2CN(C(=O)c2ccc(Cl)cc2Cl)[C@@H](Cc2ccccc2)C(=O)O)c1 [compound #162, (2s)-2-[[3-(3-Cyano-phenyl)-thiophen-2-ylmethyl]-(2,4-dichloro-benzoyl)-amino]-3-phenyl-propionic acid] | < 5
26 | O=C(O)C(c1cccs1)N(Cc1ccc(-c2cccc(C(F)(F)F)c2)o1)C(=O)c1ccc(Cl)cc1Cl (centres unmarked) [compound #163, {(2,4-Dichloro-benzoyl)-[5-(3-trifluoromethyl-phenyl)-furan-2-ylmethyl]-amino}-thiophen-2-yl-acetic acid] | 5 to 20
27 | CC(C)(C)OC(=O)N1CCC[C@H]1CN(C(=O)c1ccc(Cl)cc1Cl)[C@@H](Cc1ccccc1)C(=O)O [compound #164, L-2-{[(1-Carboxy-2-phenyl-ethyl)-(2,4-dichloro-benzoyl)-amino]-methyl}-pyrrolidine-1-carboxylic acid #tert!-butyl ester] | 5 to 20
28 | CC(C)(C)OC(=O)N1CCC[C@@H]1CN(C(=O)c1ccc(Cl)cc1Cl)[C@@H](Cc1ccccc1)C(=O)O [compound #165, d-2-{[(1-carboxy-2-phenyl-ethyl)-(2,4-dichloro-benzoyl)-amino]-methyl}-pyrrolidine-1-carboxylic acid #tert!-butyl ester] | 5 to 20
29 | O=C(O)[C@H](Cc1ccccc1)N(C(=O)c1ccc(Cl)cc1Cl)C1CCN(C(=O)OCc2ccccc2)CC1 [compound #166, 4-[(1-Carboxy-2-phenyl-ethyl)-(2,4-dichloro-benzoyl)-amino]-piperidine-1-carboxylic acid benzyl ester] | 5 to 20
30 | O=C(O)[C@H](Cc1ccccc1)N(C[C@@H]1CCCN1)C(=O)c1ccc(Cl)cc1Cl [compound #167, 1-2-[(2,4-Dichloro-benzoyl)-pyrrolidin-2-ylmethyl-amino]-3-phenyl-propionic acid] | 5 to 20
31 | O=C(O)[C@H](Cc1ccccc1)N(Cc1cccnc1)C(=O)c1ccc(Cl)cc1Cl [compound #170, 2-[(2,4-Dichloro-benzoyl)-pyridin-3-ylmethyl-amino]-3-phenyl-propionic acid] | 5 to 20
32 | O=C(O)C(Cc1ccccc1)N(Cc1ccc(C(F)(F)F)cc1)C(=O)c1ccc(Cl)cc1Cl (centres unmarked) [compound #171, 2-[(2,4-Dichloro-benzoyl)-(4-trifluoromethyl-benzyl)-amino]-3-phenyl-propionic acid] | 5 to 20
